Values after ≈ are worked out from the molar mass of the structure shown.
Legend:
[1] = molecular target: T1, GABA-A receptor; alpha-5/beta-3/gamma-2 (Homo sapiens, UniProt P18507+P28472+P31644); test: Displacement of [3H]Flumazenil from cloned human GABA alpha-5-beta-3-gamma-2 receptor expressed in HEK293 cells; assay type: cell-based
T1 sequence (P18507 whole entry): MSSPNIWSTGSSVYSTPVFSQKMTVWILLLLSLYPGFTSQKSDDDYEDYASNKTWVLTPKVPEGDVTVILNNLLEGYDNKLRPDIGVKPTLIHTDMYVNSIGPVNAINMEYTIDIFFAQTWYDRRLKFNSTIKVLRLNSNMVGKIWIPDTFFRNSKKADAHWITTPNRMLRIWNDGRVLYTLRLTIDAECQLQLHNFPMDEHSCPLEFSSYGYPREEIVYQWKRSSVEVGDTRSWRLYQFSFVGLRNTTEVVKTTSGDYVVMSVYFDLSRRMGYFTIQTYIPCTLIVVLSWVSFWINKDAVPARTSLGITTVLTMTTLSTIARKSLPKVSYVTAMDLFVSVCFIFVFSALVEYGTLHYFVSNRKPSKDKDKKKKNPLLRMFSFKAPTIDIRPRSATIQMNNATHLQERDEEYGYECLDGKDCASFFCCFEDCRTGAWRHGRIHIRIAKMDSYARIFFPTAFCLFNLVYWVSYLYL
T1 sequence (P28472 whole entry): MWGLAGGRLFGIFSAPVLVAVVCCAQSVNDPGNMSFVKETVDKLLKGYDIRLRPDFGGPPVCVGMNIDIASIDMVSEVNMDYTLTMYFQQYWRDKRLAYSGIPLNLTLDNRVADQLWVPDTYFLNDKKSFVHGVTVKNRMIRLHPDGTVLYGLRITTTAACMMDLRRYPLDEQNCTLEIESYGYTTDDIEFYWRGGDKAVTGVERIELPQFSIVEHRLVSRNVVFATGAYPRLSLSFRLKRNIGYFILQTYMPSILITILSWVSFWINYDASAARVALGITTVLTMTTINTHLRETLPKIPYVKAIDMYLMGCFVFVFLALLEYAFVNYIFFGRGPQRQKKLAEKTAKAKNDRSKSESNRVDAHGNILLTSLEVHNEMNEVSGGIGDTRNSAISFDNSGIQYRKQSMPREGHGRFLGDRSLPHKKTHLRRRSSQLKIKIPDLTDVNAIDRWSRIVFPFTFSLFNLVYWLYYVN
T1 sequence (P31644 whole entry): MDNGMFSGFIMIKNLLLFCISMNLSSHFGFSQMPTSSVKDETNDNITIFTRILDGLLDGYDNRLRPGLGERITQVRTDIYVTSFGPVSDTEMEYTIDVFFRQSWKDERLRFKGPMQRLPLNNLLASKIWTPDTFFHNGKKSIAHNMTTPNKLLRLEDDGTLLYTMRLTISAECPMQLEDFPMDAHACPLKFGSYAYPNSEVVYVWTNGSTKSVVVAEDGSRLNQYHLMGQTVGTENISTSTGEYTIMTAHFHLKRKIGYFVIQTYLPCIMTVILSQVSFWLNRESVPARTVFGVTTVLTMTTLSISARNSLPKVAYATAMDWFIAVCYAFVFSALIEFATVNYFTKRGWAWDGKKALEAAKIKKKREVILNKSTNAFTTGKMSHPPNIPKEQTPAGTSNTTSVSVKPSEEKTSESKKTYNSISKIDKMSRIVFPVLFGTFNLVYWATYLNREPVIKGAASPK

HEK293 [2] = test: Selectivity ratio of Ki for cloned human GABA alpha-1-beta-3-gamma-2 receptor expressed in HEK293 cells to Ki for cloned human GABA alpha-5-beta-3-gamma-2 receptor expressed in HEK293 cells; assay type: cell-based
HEK293 [3] = test: Selectivity ratio of Ki for cloned human GABA alpha-2-beta-3-gamma-2 receptor expressed in HEK293 cells to Ki for cloned human GABA alpha-5-beta-3-gamma-2 receptor expressed in HEK293 cells; assay type: cell-based
HEK293 [4] = test: Selectivity ratio of Ki for cloned human GABA alpha-3-beta-3-gamma-2 receptor expressed in HEK293 cells to Ki for cloned human GABA alpha-5-beta-3-gamma-2 receptor expressed in HEK293 cells; assay type: cell-based
[5] = molecular target: GABA-A receptor; alpha-5/beta-3/gamma-2 (Homo sapiens) (UniProt P18507+P28472+P31644); test: Inverse agonist activity at human GABA alpha-5-beta-3-gamma-2 receptor expressed in Xenopus laevis oocyts by electrophysiology assay relative to GABA; assay type: functional
[6] = molecular target: GABA A receptor alpha-5/beta-3/gamma-2 (Rattus norvegicus) (UniProt P18508+P19969+P63079); test: Inverse agonist activity at rat GABA alpha-5-beta-3-gamma-2 receptor expressed in HEK293 cells by electrophysiology assay relative to GABA; assay type: functional, cell-based
[7] = Selectivity ratio of Ki for cloned human GABA alpha-1-beta-3-gamma-2 receptor expressed in insect SF9 cells to Ki for cloned human GABA alpha-5-beta-3-gamma-2 receptor expressed in insect SF9 cells
[8] = Selectivity ratio of Ki for cloned human GABA alpha-2-beta-3-gamma-2 receptor expressed in insect SF9 cells to Ki for cloned human GABA alpha-5-beta-3-gamma-2 receptor expressed in insect SF9 cells
[9] = Selectivity ratio of Ki for cloned human GABA alpha-3-beta-3-gamma-2 receptor expressed in insect SF9 cells to Ki for cloned human GABA alpha-5-beta-3-gamma-2 receptor expressed in insect SF9 cells
[10] = molecular target: GABA-A receptor; alpha-1/beta-2/gamma-2 (Rattus norvegicus) (UniProt P18508+P62813+P63138); test: Inverse agonist activity at rat GABA alpha-1-beta-3-gamma-2 receptor expressed in HEK293 cells by electrophysiology assay relative to GABA; assay type: functional, cell-based
[11] = Solubility by lypophlisation solubility assay; assay type: physicochemical
[12] = Lipophilicity, log D at pH 7.4; assay type: physicochemical; details: buffer
[13] = Permeability by PAMPA; assay type: ADME; details: read-out: permeability
[14] = Half life in rat; assay type: ADME, organism-based; details: in vivo
[15] = Clearance in rat; assay type: ADME, organism-based; details: in vivo
[16] = Volume of distribution at steady state in rat; assay type: ADME, organism-based; details: in vivo, read-out: Vdss
[17] = Oral bioavailability in rat; assay type: ADME, organism-based; details: in vivo

| SMILES | Ki [1] | Ratio Ki (HEK293 [2]) | Ratio Ki (HEK293 [3]) | Ratio Ki (HEK293 [4]) | Efficacy [5] | Efficacy [6] | also measured |
| --- | --- | --- | --- | --- | --- | --- | --- |
| Cc1ncn2c1Cn1ncnc1-c1cc(C(F)F)ccc1-2 | 2.2 nM | 29 | 62 | 30 | -45% |  |  |
| Clc1ncn2c1Cn1ncnc1-c1cc(C3CC3)ccc1-2 | 1.2 nM | 23 | 15 | 16 |  | -47% |  |
| CCC(F)(F)c1ncn2c1Cn1ncnc1-c1cc(F)ccc1-2 | 3.2 nM | 5 | 3 | 2 |  | -27% |  |
| FC(F)c1ccc2c(c1)-c1ncnn1Cc1c(Cl)ncn1-2 | 1.1 nM | 19 | 36 | 15 |  | -42% |  |
| CC(=O)Nc1ccc2c(c1)-c1ncnn1Cc1c(Cl)ncn1-2 | 2.9 nM | 14 | 19 | 10 |  | -34% |  |
| Clc1ncn2c1Cn1ncnc1-c1cc(-n3ccnc3)ccc1-2 | 13 nM | 1 | 2 | 1 |  | -7% |  |
| Clc1ncn2c1Cn1ncnc1-c1cc(-c3ccccc3)ccc1-2 | 6.3 nM | 4 | 5 | 8 |  | 8% |  |
| c1ccc2c(c1)-c1ncnn1Cc1cncn1-2 |  |  |  |  |  | -37% | Ratio Ki [7]: 15; Ratio Ki [8]: 0.05; Ratio Ki [9]: 0.06 |
| CCS(=O)(=O)c1ncn2c1Cn1ncnc1-c1cc(Cl)ccc1-2 | 215 nM | 4 | > 15 | 4 |  | -23% |  |
| Cc1ncn2c1Cn1ncnc1-c1c(F)cccc1-2 | 1 nM | 5 | 13 | 6 | -42% |  |  |
| Cc1ccc2c(c1)-c1ncnn1Cc1c(Cl)ncn1-2 | 1.8 nM | 11 | 23 | 12 |  | -37% |  |
| Cc1ccc2c(c1)-c1ncnn1Cc1c(C)ncn1-2 | 9.2 nM | 11 | 34 | 23 | -37% |  |  |
| Cc1ncn2c1Cn1ncnc1-c1cc(OC(F)(F)F)ccc1-2 | 50 nM | 10 | 29 | 24 |  | -41% |  |
| Clc1ncn2c1Cn1ncnc1-c1ccccc1-2 | 0.3 nM | 13 | 5 | 2 |  | -41% |  |
| Cc1cccc(-c2ncn3c2Cn2ncnc2-c2cc(Cl)ccc2-3)n1 | 31 nM | 11 | 11 | 8 |  | -12% |  |
| Brc1ccc2c(c1)-c1ncnn1Cc1c(-c3cccs3)ncn1-2 | 4 nM | 27 | 22 | 16 | -10% |  |  |
| Cc1ncn2c1Cn1ncnc1-c1cc(OC(F)F)ccc1-2 | 1.8 nM | 58 | 53 | 33 | -43% |  |  |

| SMILES | Ki [1] | Ratio Ki (HEK293 [2]) | Ratio Ki (HEK293 [3]) | Ratio Ki (HEK293 [4]) | Efficacy [5] | Efficacy [6] | also measured |
| --- | --- | --- | --- | --- | --- | --- | --- |
| Cc1nc(-c2ncn3c2Cn2ncnc2-c2cc(F)ccc2-3)no1 | 0.2 nM | 3 | 5 | 3 |  | -12% |  |
| Cc1ncn2c1Cn1ncnc1-c1cc(C(F)(F)F)ccc1-2 | 18 nM | 29 | 78 | 29 | -32% |  |  |
| CCCc1ncn2c1Cn1ncnc1-c1cc(Cl)ccc1-2 | 1.6 nM | 3 | 5 | 3 |  | -35% |  |
| Cc1ncn2c1Cn1ncnc1-c1ccccc1-2 | 2.6 nM | 16 | 6 | 4 |  | -44% |  |
| O=C(Nc1ccc2c(c1)-c1ncnn1Cc1c(Cl)ncn1-2)C1CC1 | 16 nM | 2 | 6 | 5 | -48% |  |  |
| Cc1ncn2c1Cn1ncnc1-c1cc(F)ccc1-2 | 3 nM | 6 | 3 | 4 |  | -38% |  |
| Cc1ncn2c1Cn1ncnc1-c1cccc(F)c1-2 | 64 nM | 12 | 12 | 5 | -50% |  |  |
| COc1ccc2c(c1)-c1ncnn1Cc1c(C)ncn1-2 | 7.7 nM | 11 | 31 | 18 | -45% |  |  |
| Cc1ncn2c1Cn1ncnc1-c1c(Cl)cccc1-2 | 1.2 nM | 0.6 | 2 | 1 | -45% |  |  |
| CS(=O)(=O)Nc1ccc2c(c1)-c1ncnn1Cc1c(Cl)ncn1-2 | 54 nM | 7 | 5 | 5 | -36% |  |  |
| N#Cc1ccc2c(c1)-c1ncnn1Cc1c(Cl)ncn1-2 | 2.4 nM | 15 | 16 | 5 |  | -27% |  |
| Cc1ncn2c1Cn1ncnc1-c1cc(Br)ccc1-2 | 6.2 nM | 22 | 30 | 21 |  | -42% | Efficacy [10]: -9%; solubility [11]: 78 µg/mL (≈ 247 µM); logD [12]: 1.6; Papp [13]: 7.6 ×10⁻⁶ cm/s; half-life [14]: 7.7 h; clearance [15]: 0.6 mL/min/kg; Vd [16]: 0.4 L/kg; bioavailability [17]: 80% |
| Cn1nccc1-c1ncn2c1Cn1ncnc1-c1cc(Br)ccc1-2 | 9.7 nM | 26 | 35 | 22 | -33% |  |  |
| Clc1ncn2c1Cn1ncnc1-c1cc(NC3CC3)ccc1-2 | 2.2 nM | 10 | 43 | 36 |  | -37% |  |
| Clc1ccc2c(c1)-c1ncnn1Cc1c(C3CC3)ncn1-2 | 9.4 nM | 6 | 7 | 5 |  | -21% |  |
| Cc1ncn2c1Cn1ncnc1-c1cc(I)ccc1-2 | 4.4 nM | 42 | 60 | 29 | -57% |  |  |
| C#CCNC(=O)c1ncn2c1Cn1ncnc1-c1cc(F)ccc1-2 | 68 nM | 4 | 1 | 1 |  | -35% |  |

— ChEMBL document CHEMBL1154288, “The discovery and unique pharmacological profile of RO4938581 and RO4882224 as potent and selective GABAA alpha5 inverse agonists for the treatment of cognitive dysfunction” (Bioorg Med Chem Lett, 2009)
